No end group written: not given here.
Legend:
E. coli DH5α = conditions: DH5α, 18 h
Protocol: (§1) The minimum inhibitory concentration (MIC) of the peptides was carried out by way of example against gram(−) E. coli DH5α (and gram(+) Staphylococcus xylosus (both Deutsche Sammlung von Mikroorganismen and Zellkulturen, DSMZ) in a standardized microdilution method according to the general guidelines of the CLSI (Clinical and Laboratory Standards Institute 2006) and EUCAST (European Committee for Antimicrobial Susceptibility Testing of the European Society of Clinical Microbiology and Infectious Diseases 2003) with slight adaptations to the investigation of cationic antimicrobial peptides (Wiegand et al. 2008). The bacteria cells were cultivated in Mueller-Hinton-Boullion (MHB) to an optical density of 0.4 to 0.6 at 600 nm wavelength, corresponding to about 4·10^8 bacteria per ml. Then, the bacteria cultures were diluted to a bacteria concentration of about 1·10^5 bacteria per ml in sterile MHB. Using the peptides, series of 2-fold dilutions starting at 128 μM to the smallest dilution of 0.5 μM in MHB were prepared. The peptide dilutions were mixed with the dilute bacteria cultures in a […] in the chambers of a 96-well polypropylene microtiter plate (Starlab, Hamburg, Germany), so that the peptides were present in an end concentration between 64 μM and 0.25 μM at a bacteria concentration of 5·10^4 bacteria/ml. Sterile MHB served as negative control, and the positive control used as the corresponding bacteria concentration in MHB without the addition of peptide. The microtiter plates were incubated for 18 hours at 37° C. with shaking at 120 rpm in a climatically controlled chamber. After the incubation, the bacteria concentration was determined by renewed absorption measurement at a wavelength of 600 nm.

Staphylococcus xylosus = conditions: 18 h
Protocol: as §1

[1] = test system: human histiocytic lymphoma cell line U937; test: Cytotoxicity, direct membrane damage (CytoTox 96), LD50; format: cell-based; conditions: U937, two hours at 37° C., 0.25-64 μM
Protocol: The direct membrane damage was investigated with the help of the CytoTox 96 Non-Radioactive Cytotoxicity Assay (Promega, Mannheim, Germany). For this purpose, the cells were sedimented at 100 g for ten minutes at 4° C., and 50 μl of the resulting culture supernatant were added to 50 μl of the CytoTox substrate mix. After an incubation time of 30 minutes in the dark at room temperature, 50 μl of the CytoTox stopping solution were added to the sample and the absorption was measured at 490 nm. To determine the LD50 value, the measurement value of the negative control was deducted from the absorption values and divided by the measurement value of the permeabilization control. The calculated values were plotted graphically against the peptide concentration and fitted using the Origin pro 8.1 G Software according to a sigmoidal model and the LD50 values were ascertained from this. The calculation was carried out analogously to example 5 by reference to the solution of equation 5.1 for the case y=50, where y in this case corresponds to the relative cytotoxicity in percent and x corresponds to the peptide concentration in μM. Representative graphical evaluations of LD50 values are shown in FIG. 6 by reference to the measurement results for the reference peptides BMAP-27, protamine and KL-helix, and also the peptide O1 according to the invention.

[2] = test system: human histiocytic lymphoma cell line U937; test: Long-term growth inhibition, minimum toxic concentration (MTC)
Protocol: The cytotoxic potential of the antimicrobial peptides was determined by way of example by reference to the human histiocytic lymphoma cell line U937 (DSMZ). The influence of the peptides on the permeability of the cell membrane and their longer-term growth-inhibiting effect was investigated. 15 ml of RPMI 1640 medium with 2 mM glutamine and 10% FCS (Biochrom, Berlin, Germany) were inoculated with 1·10^5 cells per ml and cultivated for three days at 37° in T75 cell culture bottles (TPP, Trasadingen, Switzerland) with constant gassing with 5% CO2 in a climatically controlled chamber. The medium was admixed with 10 U/ml penicillin and […] streptomycin (both AppliChem, Darmstadt, Germany) to avoid bacterial contaminations, with no further antibiotics being added during the subsequent recultivation. Before each experiment, the cells were washed by centrifugation at 100 g for five minutes and subsequent resuspension in RPMI 1640 medium with 2 mM glutamine and 10% FCS in each case two times and adjusted to a concentration of 1·10^5 cells per ml. Finally, in each case 100 μl of the U937 cells were transferred to the reaction chambers of a sterile 96-well polypropylene microtiter plate and admixed with in each case 100 μl of a prediluted antimicrobial peptide in RPMI 1640 medium without antibiotic addition, such that end concentrations of in each case 5·10^4 cells per ml at peptide concentrations between 0.25 μM and 64 μM were present. The negative control used was samples without antimicrobial peptide, while Triton X-100 (AppliChem) was used in an end concentration of 5% as positive control for the permeabilization. The samples were cultivated for two hours at 37° C. and with continuous gassing with 5% CO2 in a climatically controlled chamber. Then, in each case 100 μl of each sample were removed and transferred to new sterile microtiter plates for determining the direct membrane damage. The remaining 100 μl of the samples were cultivated for at least four further days.
For this purpose, 10 μl of lysing solution were added to in each case 100 μl of cell suspension and incubated for 60 minutes at 37° C. Then, the cell culture supernatants were investigated as described above. The lowest peptide concentration at which complete suppression of the cell growth was established after four days was stipulated as the minimum toxic concentration (MTC).

| Substance | MIC E. coli (E. coli DH5α) [µM] | MIC S. xylosus (Staphylococcus xylosus) [µM] | Toxicity LD50 [1] [µM] | Toxicity MTC (minimum toxic concentration) [2] [µM] |
| --- | --- | --- | --- | --- |
| RKILILIKRK [N3] | 16 | 4 | >64 | >64 |
| RRRVVVVVRRR [S5] | 32 | 2 | >64 | >64 |
| KRKILIKRK [H3] | >64 | 64 | >64 | >64 |
| KRKILILIKRKR [C2] | 16 | 2 | >64 | >64 |
| ILIKRK [N7, ILIKRK] | >64 | >64 | >64 | >64 |
| KRKLILKRILIKRK [A2] | 16 | 8 | >64 | >64 |
| KRKILILIK [C4] | 32 | 8 | >64 | >64 |
| KRKILILI [C5] | >64 | >64 | >64 | >64 |
| KKKKKIIIIIKDDDD [D2] | >64 | >64 | >64 | >64 |
| KRKGKRK [H7, KRKGKRK] | >64 | 64 | >64 | >64 |
| KKKKKIIIIIKKKDD [D3] | >64 | 32 | >64 | >64 |
| RKLILKRKRILIKR [A3] | 16 | 8 | >64 | >64 |
| LILIKRK [N6, LILIKRK] | >64 | >64 | >64 | >64 |
| KRKGSGKRK [H8] | >64 | >64 | >64 | >64 |
| KRKLIKRK [H4] | >64 | >64 | >64 | >64 |
| LILKRKRKRKRILI [A5] | >64 | >64 | >64 | >64 |
| KRKKRK [H6, KRKKRK] | >64 | 16 | >64 | >64 |
| ILILILILKRK [M3] | >64 | >64 | >64 | >64 |
| KKKKKIIIIIDKKKK [D6] | 32 | 16 | >64 | >64 |
| KRKILILIKRKRK [C1] | 16 | 1 | 61 | >64 |
| KRKIKRK [H5, KRKIKRK] | >64 | >64 | >64 | >64 |
| KRKILILILIL [M2] | >64 | >64 | >64 | >64 |
| KRKLILIKRK [H2] | >64 | 16 | >64 | >64 |
| RKRKILILIKRK [N2] | 8 | 2 | >64 | >64 |
| KRKILILIKR [C3] | 16 | 8 | >64 | >64 |
